Assay results taken from BigSolDB 2.1.

CCOc1cccc(C=O)c1O
solubility (mole fraction)
Conditions	278.15 K	283.15 K	288.15 K	293.15 K	298.15 K	303.15 K	308.15 K	313.15 K
in acetone	0.155	0.217	0.272	0.325	0.384	0.446	0.523	0.605
in acetonitrile	0.104	0.154	0.206	0.254	0.303	0.352	0.415	0.498
in ethanol	0.0153	0.0195	0.0287	0.0433	0.0662	0.102	0.145	0.214
in ethyl acetate	0.134	0.174	0.209	0.25	0.294	0.344	0.403	0.497
in isopropanol	0.0095	0.0143	0.0197	0.0284	0.0437	0.0642	0.0925	0.151
in methanol	0.0196	0.0355	0.0567	0.0786	0.132	0.211	0.304	0.434
in methyl acetate	0.137	0.185	0.227	0.281	0.335	0.388	0.475	0.563
in n-butanol	0.0163	0.0206	0.0287	0.0398	0.0566	0.0795	0.116	0.164
in n-butyl acetate	0.0985	0.125	0.158	0.188	0.237	0.281	0.334	0.409
in n-propanol	0.0145	0.0198	0.0262	0.0395	0.0576	0.0824	0.124	0.176
in n-propyl acetate	0.105	0.136	0.164	0.205	0.248	0.312	0.374	0.464
in water	5.24e-05	6.55e-05	7.32e-05	8.68e-05	0.000106	0.000125	0.000155	0.000191
